We go through one compound from PubChem BioAssay AID1671282.

Molecules are shown by their SMILES.

The test addresses Tyrosine-protein kinase Fyn (Homo sapiens) (UniProt P06241). As to the kind of experiment: FYN kinase inhibition, dose response, biochemical, Z'-LYTE, FRET readout, direct format (AID 1671282). Conditions: Z'-LYTE FRET kinase assay, recombinant FYN.

Chain of Tyrosine-protein kinase Fyn (Homo sapiens) (P06241 whole entry, looked up): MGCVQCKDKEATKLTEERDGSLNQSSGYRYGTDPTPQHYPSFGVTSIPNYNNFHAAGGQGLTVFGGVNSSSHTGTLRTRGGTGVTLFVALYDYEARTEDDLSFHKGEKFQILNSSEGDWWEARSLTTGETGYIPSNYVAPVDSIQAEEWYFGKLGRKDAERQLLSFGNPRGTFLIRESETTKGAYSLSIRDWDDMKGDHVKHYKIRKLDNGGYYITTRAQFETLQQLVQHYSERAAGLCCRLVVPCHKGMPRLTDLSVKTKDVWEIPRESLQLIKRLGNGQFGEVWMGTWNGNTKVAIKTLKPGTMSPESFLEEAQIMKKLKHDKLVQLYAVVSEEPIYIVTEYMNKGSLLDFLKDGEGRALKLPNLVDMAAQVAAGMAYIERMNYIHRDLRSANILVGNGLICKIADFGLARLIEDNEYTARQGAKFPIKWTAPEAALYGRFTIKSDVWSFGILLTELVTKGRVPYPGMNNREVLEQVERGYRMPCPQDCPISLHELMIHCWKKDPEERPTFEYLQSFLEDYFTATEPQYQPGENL

With `COc1cc2ncnc(Nc3cccc(Cl)c3)c2cc1OC`, the half-maximal inhibitory concentration (IC50) is 8.78 µM.
